In patent US20070049564A1 (Wyeth, priority 2005, published 2007):
Where two headings read alike, the source gives them in different places.

Assays:
S. aureus GC 4536 = assay: MIC, broth microdilution; settings: Staphylococcus aureus, GC4536, S. aureus GC 4536
S. pneumoniae+ GC 4465 = assay: MIC, broth microdilution; settings: Streptococcus pneumoniae, S. pneumoniae+ GC 4465
S. epidermidis GC 4935 = assay: MIC, broth microdilution; settings: Staphylococcus epidermidis, GC4935, S. epidermidis GC 4935
S. pneumoniae* GC 4465 = assay: MIC, broth microdilution; settings: Streptococcus pneumoniae, S. pneumoniae* GC 4465
E. coli GC 6465 = assay: MIC, broth microdilution; settings: Escherichia coli, GC6465, E. coli GC 6465
E. faecalis GC 4555 = assay: MIC, broth microdilution; settings: Enterococcus faecalis, GC4555, E. faecalis GC 4555
S. aureus GC 1079 = assay: MIC, broth microdilution; settings: Staphylococcus aureus, GC1079, S. aureus GC 1079
S. aureus GC 6467 = assay: MIC, broth microdilution; settings: Staphylococcus aureus, GC6467, S. aureus GC 6467
S. aureus GC 1131 = assay: MIC, broth microdilution; settings: Staphylococcus aureus, GC1131, S. aureus GC 1131
E. coli GC 2272 = assay: MIC, broth microdilution; settings: Escherichia coli, GC2272, E. coli GC 2272
E. coli GC 2235 = assay: MIC, broth microdilution; settings: Escherichia coli, GC2235, E. coli GC 2235
E. coli GC 4559 = assay: MIC, broth microdilution; settings: Escherichia coli, GC4559, E. coli GC 4559
E. faecalis GC 2267 = assay: MIC, broth microdilution; settings: Enterococcus faecalis, GC2267, E. faecalis GC 2267
c. albicans GC 3066 = assay: MIC, broth microdilution
E. faecalis GC 2242 = assay: MIC, broth microdilution; settings: Enterococcus faecalis, GC2242, E. faecalis GC 2242
E. coli GC 1073 = assay: MIC, broth microdilution; settings: Escherichia coli, GC1073, E. coli GC 1073
E. coli GC 4560 = assay: MIC, broth microdilution; settings: Escherichia coli, GC4560, E. coli GC 4560
S. agalactiae GC 4564 = assay: MIC, broth microdilution; settings: Streptococcus agalactiae, GC4564, S. agalactiae GC 4564
S. typhimurium GC 2172 = assay: MIC, broth microdilution; settings: Salmonella enterica, TYPHIMURIUM, S. typhimurium GC 2172
Staph. aureus Smith = assay: In vivo activity (oral, iv; ED50) against Staph. aureus Smith in mice
Description: Representative examples of compounds of Formula I were tested for the oral efficacy using S. aureus Smith in mice.

[1] = c. albicans GC 3066, Water pre-incubation
[2] = Staphylococcus aureus, in Mus musculus, po, read-out: ED50 Staph Smith SOD
[3] = iv, read-out: ED50 Staph Smith SIV

CCCCN(CC(=O)Nc1cc(N(C)C)c2c(c1O)C(=O)C1=C(O)[C@]3(O)C(=O)C(C(N)=O)=C(O)[C@@H](N(C)C)[C@@H]3C[C@@H]1C2)C(=O)OCOC(=O)C(C)(C)C [Example 13, ({[(2-{[(5aR,6aS,7S,10aS)-9-(aminocarbonyl)-4,7-bis(dimethylamino)-1,8,10a,11-tetrahydroxy-10,12-dioxo-5,5a,6,6a,7,10,10a,12-octahydrotetracen-2-yl]amino}-2-oxoethyl)(butyl)amino]carbonyl}oxy)methyl pivalate]
2 µg/mL: MIC (S. aureus GC 4536; Water pre-incubation) | MIC (E. faecalis GC 4555; Mouse Serum pre-incubation) | MIC (S. aureus GC 1131; Mouse Serum pre-incubation) | MIC (S. aureus GC 1131; Water pre-incubation) | MIC (E. coli GC 2272; Mouse Serum pre-incubation) | MIC (E. coli GC 2235; Mouse Serum pre-incubation) | MIC (E. coli GC 1073; Mouse Serum pre-incubation) | MIC (S. agalactiae GC 4564; Water pre-incubation)
0.5 µg/mL: MIC (S. pneumoniae* GC 4465; Mouse Serum pre-incubation) | MIC (S. pneumoniae* GC 4465; Water pre-incubation)
8 µg/mL: MIC (S. pneumoniae+ GC 4465; Mouse Serum pre-incubation) | MIC (S. pneumoniae+ GC 4465; Water pre-incubation) | MIC (S. epidermidis GC 4935; Water pre-incubation) | MIC (E. coli GC 6465; Mouse Serum pre-incubation) | MIC (S. aureus GC 6467; Water pre-incubation) | MIC (E. coli GC 2272; Water pre-incubation) | MIC (E. coli GC 2235; Water pre-incubation) | MIC (E. faecalis GC 2267; Water pre-incubation) | MIC (E. faecalis GC 2242; Water pre-incubation) | MIC (S. typhimurium GC 2172; Mouse Serum pre-incubation)
11 mg/kg: ED50 (Staph. aureus Smith; [2])
1 µg/mL: MIC (S. aureus GC 4536; Mouse Serum pre-incubation) | MIC (E. coli GC 4560; Mouse Serum pre-incubation) | MIC (S. agalactiae GC 4564; Mouse Serum pre-incubation)
0.82 mg/kg: ED50 (Staph. aureus Smith; [3])
64 µg/mL: MIC (S. typhimurium GC 2172; Water pre-incubation)
> 64 µg/mL: MIC (E. coli GC 6465; Water pre-incubation) | MIC (c. albicans GC 3066; Candida albicans, GC3066)
4 µg/mL: MIC (S. epidermidis GC 4935; Mouse Serum pre-incubation) | MIC (E. faecalis GC 4555; Water pre-incubation) | MIC (S. aureus GC 1079; Mouse Serum pre-incubation) | MIC (S. aureus GC 1079; Water pre-incubation) | MIC (S. aureus GC 6467; Mouse Serum pre-incubation) | MIC (E. coli GC 4559; Mouse Serum pre-incubation) | MIC (E. faecalis GC 2267; Mouse Serum pre-incubation) | MIC (E. faecalis GC 2242; Mouse Serum pre-incubation) | MIC (E. coli GC 4560; Water pre-incubation)
16 µg/mL: MIC (E. coli GC 4559; Water pre-incubation) | MIC (E. coli GC 1073; Water pre-incubation)
>64 UG/ML: MIC (c. albicans GC 3066; [1])

CCCN(CC(=O)Nc1cc(N(C)C)c2c(c1O)C(=O)C1=C(O)[C@]3(O)C(=O)C(C(N)=O)=C(O)[C@@H](N(C)C)[C@@H]3C[C@@H]1C2)C(=O)OCc1ccccc1 [Example 14, benzyl 2-{[(5aR,6aS,7S,10aS)-9-(aminocarbonyl)-4,7-bis(dimethylamino)-1,8,10a,11-tetrahydroxy-10,12-dioxo-5,5a,6,6a,7,10,10a,12-octahydrotetracen-2-yl]amino}-2-oxoethyl(propyl)carbamate]
>64 UG/ML: MIC (c. albicans GC 3066; [1])
> 64 µg/mL: MIC (E. coli GC 6465; Mouse Serum pre-incubation) | MIC (E. coli GC 6465; Water pre-incubation) | MIC (E. coli GC 2272; Mouse Serum pre-incubation) | MIC (E. coli GC 2272; Water pre-incubation) | MIC (E. coli GC 4559; Mouse Serum pre-incubation) | MIC (E. coli GC 4559; Water pre-incubation) | MIC (c. albicans GC 3066; Candida albicans, GC3066) | MIC (E. coli GC 1073; Mouse Serum pre-incubation) | MIC (E. coli GC 1073; Water pre-incubation) | MIC (S. typhimurium GC 2172; Mouse Serum pre-incubation) | MIC (S. typhimurium GC 2172; Water pre-incubation)
64 µg/mL: MIC (E. coli GC 2235; Water pre-incubation)
> 2 mg/kg: ED50 (Staph. aureus Smith; [3])
16 µg/mL: MIC (S. agalactiae GC 4564; Mouse Serum pre-incubation) | MIC (S. agalactiae GC 4564; Water pre-incubation)
8 µg/mL: MIC (S. epidermidis GC 4935; Mouse Serum pre-incubation) | MIC (S. epidermidis GC 4935; Water pre-incubation) | MIC (E. faecalis GC 4555; Water pre-incubation) | MIC (E. faecalis GC 2267; Water pre-incubation) | MIC (E. faecalis GC 2242; Water pre-incubation)
2 µg/mL: MIC (S. aureus GC 4536; Mouse Serum pre-incubation) | MIC (S. aureus GC 4536; Water pre-incubation) | MIC (S. pneumoniae* GC 4465; Mouse Serum pre-incubation) | MIC (E. faecalis GC 4555; Mouse Serum pre-incubation) | MIC (S. aureus GC 1079; Water pre-incubation) | MIC (S. aureus GC 6467; Mouse Serum pre-incubation) | MIC (S. aureus GC 1131; Water pre-incubation) | MIC (E. faecalis GC 2267; Mouse Serum pre-incubation) | MIC (E. faecalis GC 2242; Mouse Serum pre-incubation)
32 µg/mL: MIC (E. coli GC 2235; Mouse Serum pre-incubation)
4 µg/mL: MIC (S. pneumoniae+ GC 4465; Mouse Serum pre-incubation) | MIC (S. pneumoniae+ GC 4465; Water pre-incubation) | MIC (S. pneumoniae* GC 4465; Water pre-incubation) | MIC (S. aureus GC 6467; Water pre-incubation) | MIC (E. coli GC 4560; Mouse Serum pre-incubation) | MIC (E. coli GC 4560; Water pre-incubation)
> 32 mg/kg: ED50 (Staph. aureus Smith; [2])
1 µg/mL: MIC (S. aureus GC 1079; Mouse Serum pre-incubation) | MIC (S. aureus GC 1131; Mouse Serum pre-incubation)
